Tests used:
h17β-HSD2 = target: T1, h17β-HSD2 (Homo sapiens, UniProt P37059); assay: Inhibition of h17β-HSD2 in cell-free assay; format: biochemical; design: from tissue; host or cells: human placenta, microsomal fraction; settings: for s.f. (selectivity factor) = IC50(17β-HSD1)/IC50(17β-HSD2): human enzymes, cell-free
T1 sequence (P37059 1-387): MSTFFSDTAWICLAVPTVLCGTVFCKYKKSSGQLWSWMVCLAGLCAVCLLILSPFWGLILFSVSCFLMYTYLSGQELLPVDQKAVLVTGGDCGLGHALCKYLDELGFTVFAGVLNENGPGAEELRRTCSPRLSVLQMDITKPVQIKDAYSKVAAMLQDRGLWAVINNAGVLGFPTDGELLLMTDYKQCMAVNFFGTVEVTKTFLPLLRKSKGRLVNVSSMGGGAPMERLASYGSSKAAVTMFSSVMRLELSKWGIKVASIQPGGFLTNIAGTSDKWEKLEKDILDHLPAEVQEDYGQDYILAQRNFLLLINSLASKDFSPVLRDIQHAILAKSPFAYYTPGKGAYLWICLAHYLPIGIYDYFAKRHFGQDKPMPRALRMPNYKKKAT

h17β-HSD1 = target: T2, h17β-HSD1 (Homo sapiens, UniProt P14061); assay: Inhibition of h17β-HSD1 in cell-free assay; format: biochemical; settings: human placental cytosolic fraction, substrate E1 [500 nM], cofactor NADH [500 μM]
T2 construct: h17β-HSD1 was obtained after precipitation with ammonium sulfate from the cytosolic fraction; from tissue; host or cells: human placenta, cytosolic fraction
T2 sequence (P14061 1-328): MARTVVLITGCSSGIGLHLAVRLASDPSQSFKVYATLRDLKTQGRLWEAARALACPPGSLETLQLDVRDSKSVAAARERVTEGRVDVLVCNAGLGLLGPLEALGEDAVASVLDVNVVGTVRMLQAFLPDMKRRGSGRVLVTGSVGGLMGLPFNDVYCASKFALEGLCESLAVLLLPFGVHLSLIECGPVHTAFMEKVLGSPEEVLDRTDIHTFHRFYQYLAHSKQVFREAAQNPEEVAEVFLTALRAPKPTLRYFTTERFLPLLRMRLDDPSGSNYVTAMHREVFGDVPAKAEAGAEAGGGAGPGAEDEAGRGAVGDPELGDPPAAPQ
Outline: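 Cytosolic enzyme from human placenta, ammonium sulfate-precipitated, incubated with 500 μM NADH, test compound and unlabelled plus [3H]-E1 (500 nM final) for 10 min at 37°C. Steroids separated by HPLC with radiodetection to quantify conversion.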

m17β-HSD2 = target: T3, m17β-HSD2 (Mus musculus, UniProt P51658); assay: Inhibition of m17β-HSD2 in cell-free assay; format: biochemical
T3 construct: The microsomal fraction (m17β-HSD2) was obtained from mouse liver as described for h17β-HSD2; tissue Pharmacelsus GmbH (mouse livers); host or cells: mouse liver, microsomal fraction
T3 sequence (P51658 1-381): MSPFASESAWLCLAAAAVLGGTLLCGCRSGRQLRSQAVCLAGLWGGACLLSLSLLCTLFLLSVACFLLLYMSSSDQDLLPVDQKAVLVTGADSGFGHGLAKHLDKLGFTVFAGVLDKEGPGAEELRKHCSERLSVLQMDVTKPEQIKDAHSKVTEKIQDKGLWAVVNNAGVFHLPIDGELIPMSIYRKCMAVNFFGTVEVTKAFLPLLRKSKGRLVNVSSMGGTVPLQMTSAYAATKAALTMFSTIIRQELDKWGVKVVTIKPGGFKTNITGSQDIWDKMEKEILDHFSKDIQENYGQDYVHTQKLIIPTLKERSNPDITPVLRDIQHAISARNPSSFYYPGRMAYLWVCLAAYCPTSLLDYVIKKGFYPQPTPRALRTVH
Outline: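 Mouse liver microsomal enzyme incubated with tritiated substrate, NAD+ [1500 μM] and inhibitor at 37 °C in 50 mM phosphate buffer with 20% glycerol, 1 mM EDTA, 1% DMSO final. Stopped after 20 min with HgCl2, steroids ether-extracted and quantified by HPLC radioflow detection; at least two independent experiments.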

ERβ = ERβ (Homo sapiens, UniProt Q92731); assay: Estrogen receptor affinity in a cell-free assay (ERβ); format: binding; settings: 1000-fold excess relative to E2; recombinant human ERβ
Description: The binding affinity of selected compounds to ERα and ERβ was determined according to the recommendations of the US Environmental Protection Agency (EPA) by their Endocrine Disruptor Screening Program (EDSP)[24] using recombinant human proteins.
The potential inhibitors were dissolved in DMSO (5% final concentration). […] After incubation, ligand-receptor complexes were selectively bound to hydroxyapatite (83.5 g/LinTE-buffer). The bound complex was washed three times and resuspended in ethanol. For radiodetection, scintillator cocktail (Quickszint 212, Zinsser Analytic, Frankfurt) was added and samples were measured in a liquid scintillation counter (1450 LSC & Luminescence Counter, Perkin Elmer).
After the assay was established and validated, a modification was made to increase throughput.

Sequence of ERβ (Q92731 whole entry): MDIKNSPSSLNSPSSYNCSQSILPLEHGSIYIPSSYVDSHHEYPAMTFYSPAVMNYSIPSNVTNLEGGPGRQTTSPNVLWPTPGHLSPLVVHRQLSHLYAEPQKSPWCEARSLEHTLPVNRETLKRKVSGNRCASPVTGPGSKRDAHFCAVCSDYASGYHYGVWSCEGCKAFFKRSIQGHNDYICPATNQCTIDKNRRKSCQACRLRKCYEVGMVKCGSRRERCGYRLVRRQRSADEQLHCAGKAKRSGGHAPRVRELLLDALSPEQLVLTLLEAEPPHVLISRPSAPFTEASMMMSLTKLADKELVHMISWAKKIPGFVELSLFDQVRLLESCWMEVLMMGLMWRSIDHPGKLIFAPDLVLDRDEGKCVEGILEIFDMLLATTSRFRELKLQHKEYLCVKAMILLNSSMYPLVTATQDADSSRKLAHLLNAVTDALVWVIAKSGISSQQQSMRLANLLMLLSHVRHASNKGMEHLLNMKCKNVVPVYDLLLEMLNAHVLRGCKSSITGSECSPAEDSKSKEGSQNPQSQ

Compound	IC50 (h17β-HSD2) [nM]	s.f. (selectivity factor) = IC50(17β-HSD1)/IC50(17β-HSD2) (h17β-HSD2)	IC50 (h17β-HSD1) [nM]	IC50 (m17β-HSD2) [nM]	displacement of E2 from ERβ (ERβ) [%]	melting point [°C]	inhibition at 1 µM (m17β-HSD2; read-out: % inh. at 1 μM m17β-HSD2) [%]
COc1cccc(N(C)C(=O)c2ccc(-c3cccc(C)c3)cc2)c1 [Compound 6a, N-(3-methoxyphenyl)-N,3'-dimethyl-[1,1'-biphenyl]-4-carboxamide]	260	25	6400	260	≤ 20	–	–
COc1cccc(N(C)C(=O)c2ccc(-c3ccc(C)c(C)c3)cc2)c1 [Compound 17a, N-(3-methoxyphenyl)-N,3',4'-trimethyl-[1,1'-biphenyl]-4-carboxamide]	300	44	13300	140	≤ 20	–	–
Cc1cccc(N(C)C(=O)c2ccc(-c3cccc(C)c3F)cc2)c1 [Compound 21a, 2'-Fluoro-N,3'-dimethyl-N-(m-tolyl)-[1,1'-biphenyl]-4-carboxamide]	330	11	3710	–	≤ 20	73 to 76	56
Cc1cccc(-c2ccc(C(=O)N(C)Cc3cccc(O)c3)cc2)c1F [Compound 25, 2'-Fluoro-N-(3-hydroxybenzyl)-N,3'-dimethyl-[1,1'-biphenyl]-4-carboxamide]	260	118	31000	190	≤ 20	123 to 126	–

Reference: paper PMC4521925, “17β-Hydroxysteroid Dehydrogenase Type 2 Inhibition: Discovery of Selective and Metabolically Stable Compounds Inhibiting Both the Human Enzyme and Its Murine Ortholog” (PLoS ONE, 2015)
